Experimental data reported in paper PMC4303209, “A novel phosphatidylinositol 3-kinase (PI3K) inhibitor directs a potent FOXO-dependent, p53-independent cell cycle arrest phenotype characterized by the differential induction of a subset of FOXO-regulated genes” (Breast Cancer Research : BCR, 2014).

System: MCF-7 breast cancer cells
Assay: Microarray gene expression analysis (Agilent whole human genome 4 x 44K; compound vs DMSO, LIMMA log2 fold change)
Assay type: cell-based
Conditions: cell cycle genes

Cn1ncc2c(N3CCOCC3)nc(-c3cccc(O)c3)nc21 [ETP-45658]
STAT5A log2FC (Gene 6776): 0.569
STAT5B log2FC (Gene 6777): 0.093
AURKA log2FC (Gene 6790): 0.163
STK10 log2FC (Gene 6793): -0.333
AURKC log2FC (Gene 6795): 0.077
SUV39H1 log2FC (Gene 6839): -0.686
TACC1 log2FC (Gene 6867): 0.112
ADAM17 log2FC (Gene 6868): 0.578
TAF1 log2FC (Gene 6872): 0.237
TAL1 log2FC (Gene 6886): -0.533
TBX3 log2FC (Gene 6926): -0.702
TCF3 log2FC (Gene 6929): -0.071
DYNLT3 log2FC (Gene 6990): -0.257
DYNLT1 log2FC (Gene 6993): 0.039
TERF1 log2FC (Gene 7013): 0.607
TERF2 log2FC (Gene 7014): -0.131
TFAP4 log2FC (Gene 7023): 0.268
NR2F2 log2FC (Gene 7026): 0.124
TFDP1 log2FC (Gene 7027): -0.484
TFDP2 log2FC (Gene 7029): 0.532
TGFB1 log2FC (Gene 7040): -0.640
THBS1 log2FC (Gene 7057): -0.941
TNF log2FC (Gene 7124): -1.647
TNFAIP3 log2FC (Gene 7128): -0.659
TOP2A log2FC (Gene 7153): 0.987
TOP2B log2FC (Gene 7155): 1.103
TOP3A log2FC (Gene 7156): -0.181
TP53 log2FC (Gene 7157): -0.193
TP53BP2 log2FC (Gene 7159): 0.300
TPR log2FC (Gene 7175): 0.896
TSC1 log2FC (Gene 7248): 0.395
TSC2 log2FC (Gene 7249): -0.413
TSG101 log2FC (Gene 7251): 0.390
TTK log2FC (Gene 7272): 1.754
TUBG1 log2FC (Gene 7283): -0.283
UBA52 log2FC (Gene 7311): 0.322
UBB log2FC (Gene 7314): 0.069
UBC log2FC (Gene 7316): 0.294
UBE2B log2FC (Gene 7320): 0.582
UBE2D1 log2FC (Gene 7321): 0.498
UBE2E1 log2FC (Gene 7324): 0.262
UBE2I log2FC (Gene 7329): -0.395
WEE1 log2FC (Gene 7465): -0.074
WNT5A log2FC (Gene 7474): 0.075
WNT10B log2FC (Gene 7480): -0.451
WNT9A log2FC (Gene 7483): 0.073
XPC log2FC (Gene 7508): 0.604
XRCC2 log2FC (Gene 7516): -0.596
YWHAG log2FC (Gene 7532): -0.492
ZNF16 log2FC (Gene 7564): 0.343
ZBTB17 log2FC (Gene 7709): 0.065
PTP4A1 log2FC (Gene 7803): -0.345
EVI5 log2FC (Gene 7813): 0.609
ALMS1 log2FC (Gene 7840): 0.617
NR4A3 log2FC (Gene 8013): 0.735
NUP214 log2FC (Gene 8021): -0.742
FOSL1 log2FC (Gene 8061): -2.502
CUL5 log2FC (Gene 8065): -0.432
YEATS4 log2FC (Gene 8089): 1.304
HMGA2 log2FC (Gene 8091): -1.656
CHAF1B log2FC (Gene 8208): 0.083
CLTCL1 log2FC (Gene 8218): -0.209
USP9X log2FC (Gene 8239): 0.632
SMC1A log2FC (Gene 8243): 0.142
CDC7 log2FC (Gene 8317): 0.500
RAD54L log2FC (Gene 8438): -0.289
CUL4B log2FC (Gene 8450): 0.695
CUL4A log2FC (Gene 8451): 0.552
CUL1 log2FC (Gene 8454): 0.479
KLF11 log2FC (Gene 8462): 1.337
OFD1 log2FC (Gene 8481): 1.019
PKP4 log2FC (Gene 8502): 0.170
GAS7 log2FC (Gene 8522): -0.364
DGKZ log2FC (Gene 8525): -0.549
CAMK1 log2FC (Gene 8536): -0.088
CDC14B log2FC (Gene 8555): 0.259
CDK10 log2FC (Gene 8558): 0.167
MADD log2FC (Gene 8567): 0.423
DYNLL1 log2FC (Gene 8655): -0.944
TNKS log2FC (Gene 8658): 0.686
BECN1 log2FC (Gene 8678): 0.486
CDC23 log2FC (Gene 8697): 0.451
CRADD log2FC (Gene 8738): -0.101
CCNK log2FC (Gene 8812): -0.603
BANF1 log2FC (Gene 8815): -0.450
CDK5R1 log2FC (Gene 8851): -0.154
IER3 log2FC (Gene 8870): -1.789
SPHK1 log2FC (Gene 8877): -0.334
CDC16 log2FC (Gene 8881): 0.890
CCNA1 log2FC (Gene 8900): 0.079
TIMELESS log2FC (Gene 8914): 0.236
PHOX2B log2FC (Gene 8929): -0.044
MBD4 log2FC (Gene 8930): 0.489
BTRC log2FC (Gene 8945): 0.108
WASL log2FC (Gene 8976): 0.239
RNF8 log2FC (Gene 9025): -0.050
PRC1 log2FC (Gene 9055): 0.420
USP2 log2FC (Gene 9099): -0.057
USP8 log2FC (Gene 9101): 0.690
SMC3 log2FC (Gene 9126): 1.332
EXO1 log2FC (Gene 9156): 0.057
ARHGEF2 log2FC (Gene 9181): -0.734
ZW10 log2FC (Gene 9183): 0.473
BUB3 log2FC (Gene 9184): 0.588
NOLC1 log2FC (Gene 9221): -0.505
CCPG1 log2FC (Gene 9236): 0.930
MAPKAPK2 log2FC (Gene 9261): -0.374
PIWIL1 log2FC (Gene 9271): 0.057
RECQL5 log2FC (Gene 9400): 0.154
ROCK2 log2FC (Gene 9475): 0.291
PSMF1 log2FC (Gene 9491): -0.383
VPS4B log2FC (Gene 9525): 0.614
CLOCK log2FC (Gene 9575): 0.069
MAD2L1BP log2FC (Gene 9587): -0.350
ARHGEF10 log2FC (Gene 9639): 0.265
MDC1 log2FC (Gene 9656): -0.639
CEP135 log2FC (Gene 9662): 0.532
KIAA0430 log2FC (Gene 9665): 0.757
CROCC log2FC (Gene 9696): -0.051
ESPL1 log2FC (Gene 9700): 0.453
CEP57 log2FC (Gene 9702): 1.199
UTP14C log2FC (Gene 9724): 0.374
KNTC1 log2FC (Gene 9735): 0.636
RASSF2 log2FC (Gene 9770): 0.675
CKAP5 log2FC (Gene 9793): 0.439
SFI1 log2FC (Gene 9814): -0.103
RB1CC1 log2FC (Gene 9821): 1.457
MELK log2FC (Gene 9833): 0.433
GINS1 log2FC (Gene 9837): -0.673
MAGI2 log2FC (Gene 9863): 0.425
TLK1 log2FC (Gene 9874): 0.392
POM121 log2FC (Gene 9883): -0.667
KLHL21 log2FC (Gene 9903): 0.769
DCLRE1A log2FC (Gene 9937): 0.710
USP3 log2FC (Gene 9960): 0.530
THOC1 log2FC (Gene 9984): 0.606
DMTF1 log2FC (Gene 9988): 0.604
CASP8AP2 log2FC (Gene 9994): 0.813
PDCD6IP log2FC (Gene 10015): 0.516
BCL2L11 log2FC (Gene 10018): 0.145
CHAF1A log2FC (Gene 10036): -0.375
PARP3 log2FC (Gene 10039): 0.325
TOM1L1 log2FC (Gene 10040): 0.759
SMC4 log2FC (Gene 10051): 0.902
ACTR2 log2FC (Gene 10097): -0.298
RAD50 log2FC (Gene 10111): 0.524
KIF20A log2FC (Gene 10112): 0.476
OPTN log2FC (Gene 10133): 0.838
AKAP9 log2FC (Gene 10142): 1.382
PSME3 log2FC (Gene 10197): -1.314
MPHOSPH9 log2FC (Gene 10198): 0.470
MPHOSPH6 log2FC (Gene 10200): -0.666
MAEA log2FC (Gene 10296): -0.219
PAK4 log2FC (Gene 10298): -0.601
NPM2 log2FC (Gene 10361): -0.152
HMG20B log2FC (Gene 10362): 0.276
CITED2 log2FC (Gene 10370): 2.261
